{"source": "patent US9586974B2", "about": "“Cyclic N-acyl O-amino phenol CBI derivative” (THE SCRIPPS RESEARCH LINSTITUTE, priority 2013, dated 2017)", "key": {"[1]": {"tested_on": "L1210 murine leukemia cells", "experiment": "In vivo antitumor activity, L1210 implanted ip in B6D2F1 mice", "set-up": "species or system mouse", "procedure": "[Wolfe et al., J. Med. Chem. 2012, 55:5878-5886.] Therefore, the preliminary evaluation of the in vivo antitumor activity of the cyclic N—O pro-drugs was assessed with Compound (+)-6 and was conducted alongside seco-CBI-indole2 (Compound 4) in an antitumor model consisting of L1210 murine leukemia cells implanted ip in B6D2F1 mice traditionally used to initially compare new duocarmycin derivatives (Table 3, below).\nB6D2F1 mice were injected intraperitoneally (i.p.) with syngeneic L1210 cells (1×10^6) on day 0. Ten mice were randomly assigned to control vehicle or treatment groups for Compounds (+)-4 and (+)-6 at doses of 60, 100, 250, and 500 μg/kg/inj for Compounds (+)-4 or 60, 200, 500, 1000, and 2500 μg/kg/inj for Compounds (+)-6. Compounds (+)-4 and (+)-6 were formulated in 100% DMSO. Both compounds were injected i.p. on days 1, 5, and 9. Following injection of tumor cells, animals were monitored daily and weighed two times per week. Percent survival (T/C) for treated and control groups were determined by dividing the total survival days for each treatment group by the total survival days for the control group and multiplying×100. All animal studies were carried out in the animal facilities of The University of Kansas Medical Center with strict adherence to the guidelines of the IACUC Animal Welfare Committee of KUMC (IACUC approval #2009-1837)."}, "[2]": {"tested_on": "L1210 (ATCC CCL-219) mouse lymphocytic leukemia cells", "experiment": "Cell growth inhibition assay (phosphatase readout)", "type": "cell-based", "procedure": "Compounds were tested for their cell growth inhibition of L1210 (ATCC CCL-219) mouse lymphocytic leukemia cells. A population of cells (>1×10^6 cells/mL as determined with a hemocytometer) was diluted with an appropriate amount of Dulbecco-modified Eagle Medium (DMEM, Gibco) containing 10% fetal bovine serum (FBS, Gibco) to a final concentration of 30,000 cells/mL. To each well of a 96-well plate (Corning® Costar®), 100 μL of the cell-media solution was added with a multichannel pipette. The cultures were incubated at 37° C. in an atmosphere of 5% CO2 and 95% humidified air for 24 hours. The test compounds were added to the plate as follows: test substances were diluted in DMSO to a concentration of 1 mM and 10-fold serial dilutions were performed on a separate 96-well plate. Fresh culture medium (100 μL) was added to each well of cells to constitute 200 μL of medium per well followed by 2 μL of each test agent. Compounds were tested in duplicate (≧2 times) at six concentrations between 0-100 nM or 0-1000 nM. Following addition, cultures were incubated for an additional 72 hours.\nA phosphatase assay was used to establish the IC50 values as follows: the media in each cell was removed and 100 μL of phosphatase solution (100 mg phosphatase substrate in 30 mL 0.1 M NaOAc, pH 5.5, 0.1% Triton® X-100 buffer) was added to each well. The plates were incubated at 37° C. for 5 minutes. After the given incubation time, 50 μL of 0.1 N NaOH was added to each well and the absorption at 405 nm was determined using a 96 well plate reader. As the absorption is directly proportional to the number of living cells, the IC50 values were calculated and the reported values represent of the average of ≧4 determinations (SD±10%)."}, "[3]": {"experiment": "Stability in acidic media"}, "[4]": {"experiment": "Stability in human plasma", "type": "in vitro ADME", "procedure": "Reagents and solvents were purchased reagent-grade and used without further purification. Pooled human plasma, with sodium citrate as an anticoagulant, was purchased from Innovative Research and stored at −20° C. THF was freshly distilled from sodium benzophenone ketyl. All reactions were performed in oven-dried glassware under an Ar atmosphere. Evaporation and concentration in vacuo was performed at 20° C. TLC was conducted using precoated SiO2 60 F254 glass plates from EMD with visualization by UV light (254 or 366 nm). Chiral phase HPLC was performed using a Shimadzu HPLC on a semi-preparative Diacel ChiralCel OD column (0.46 cm×25 cm) with a flow rate of 7 mL/min and with UV detection at λ=254 nm. Optical rotations were determined on a Rudolf Research Analytical Autopol III Automatic Polarimeter (λ=589 nm, 25° C.)."}, "[5]": {"experiment": "Cleavage under reductive conditions", "type": "physicochemical", "details": "H2, Pd/C, MeOH, 23° C., 1 hour or Mo(CO)6, MeCN/H2O, reflux, 3 hours", "source_text": "The greater stability of Compound 12 versus Compound 15 toward nucleophilic cleavage of the N—O bond can be attributed to the increased steric hindrance of the tertiary versus secondary nitrogen consistent with prior observations. [Lajiness et al., J. Med. Chem. 2010, 53:7731-7738]"}, "[6]": {"experiment": "not given", "remark": "listed apart in the source"}, "[7]": {"details": "60 μg/kg i.p. on days 1, 5 and 9"}, "[8]": {"details": "200 μg/kg i.p. on days 1, 5 and 9"}, "[9]": {"details": "500 μg/kg i.p. on days 1, 5 and 9"}, "[10]": {"details": "1000 μg/kg i.p. on days 1, 5 and 9"}, "[11]": {"details": "2500 μg/kg i.p. on days 1, 5 and 9"}, "[12]": {"details": "Mus musculus, L1210, 72 h, read-out: IC50 L1210 unnatural, unnatural enantiomer, 72 hours"}}, "note": "Read-outs that look alike come from different tables or passages of the source."}
{"smiles": "CN1Oc2cc3c(c4cccc(c24)C1=O)[C@H](CCl)CN3C(=O)c1cc2cc(NC(=O)c3cc4ccccc4[nH]3)ccc2[nH]1", "note": "[Compound 6, N-(2-(10-(Chloromethyl)-5-methyl-4-oxo-5,8,9,10-tetrahydro-4H-pyrrolo[3′,2′:5,6]naphtho[1,8-de][1,2]oxazine-8-carbonyl)-1H-indol-5-yl)-1H-indole-2-carboxamide]", "values": [{"measurement": "MSP (Mean Survival Period)", "setting": "[1]; [7]", "value": 28, "unit": "days"}, {"measurement": "Surviving Mice (live animals after 366 days)", "setting": "[1]; [7]", "value": "0/10"}, {"measurement": "T/C = Treated/Control (MSP) × 100", "setting": "[1]; [7]", "value": 159}, {"measurement": "MSP (Mean Survival Period)", "setting": "[1]; [8]", "value": ">68", "unit": "days"}, {"measurement": "Surviving Mice (live animals after 366 days)", "setting": "[1]; [8]", "value": "1/10"}, {"measurement": "T/C = Treated/Control (MSP) × 100", "setting": "[1]; [8]", "value": ">386"}, {"measurement": "MSP (Mean Survival Period)", "setting": "[1]; [9]", "value": ">201", "unit": "days"}, {"measurement": "Surviving Mice (live animals after 366 days)", "setting": "[1]; [9]", "value": "4/10"}, {"measurement": "T/C = Treated/Control (MSP) × 100", "setting": "[1]; [9]", "value": ">1142"}, {"measurement": "MSP (Mean Survival Period)", "setting": "[1]; [10]", "value": ">199", "unit": "days"}, {"measurement": "Surviving Mice (live animals after 366 days)", "setting": "[1]; [10]", "value": "4/10"}, {"measurement": "T/C = Treated/Control (MSP) × 100", "setting": "[1]; [10]", "value": ">1130"}, {"measurement": "MSP (Mean Survival Period)", "setting": "[1]; [11]", "value": ">264", "unit": "days"}, {"measurement": "Surviving Mice (live animals after 366 days)", "setting": "[1]; [11]", "value": "6/10"}, {"measurement": "T/C = Treated/Control (MSP) × 100", "setting": "[1]; [11]", "value": ">1500"}, {"measurement": "IC50", "setting": "[2]; [12]", "value": 740, "unit": "nM"}, {"measurement": "IC50", "setting": "[2]; read-out: IC50 L1210 natural, natural enantiomer, 72 hours", "value": 0.99, "unit": "nM"}, {"measurement": "half-life in acidic media", "setting": "[3]; 1:1 TFA/CH2Cl2, 23° C.", "value": 30, "unit": "h"}, {"measurement": "half-life (t1/2) in acidic media", "setting": "[3]; 4 N HCl/EtOAc, 23° C. (12, 15: after initial Boc deprotection)", "value": "> 72", "unit": "h"}, {"measurement": "t1/2 in human plasma", "setting": "[4]", "value": "> 1", "unit": "week"}, {"measurement": "cleavage under reductive conditions", "setting": "[5]", "value": "rapidly cleaved"}, {"measurement": "t1/2 in pH 7.0 phosphate buffer", "value": "> 4", "unit": "weeks"}]}
{"smiles": "O=C(Nc1ccc2[nH]c(C(=O)N3C[C@@H](CCl)c4c3cc3c5c(cccc45)C(=O)NO3)cc2c1)c1cc2ccccc2[nH]1", "note": "[Compound 7, N-(2-(10-(Chloromethyl)-4-oxo-5,8,9,10-tetrahydro-4H-pyrrolo[3′,2′:5,6]naphtho[1,8-de][1,2]oxazine-8-carbonyl)-1H-indol-5-yl)-1H-indole-2-carboxamide]", "values": [{"measurement": "IC50", "setting": "[2]; [12]", "value": 65, "unit": "nM"}, {"measurement": "IC50", "setting": "[2]; Mus musculus, L1210, natural enantiomer, 72 hours, read-out: IC50 L1210 natural", "value": 0.3, "unit": "nM"}, {"measurement": "free drug in mouse plasma", "setting": "[6]", "value": "< 5", "unit": "%"}, {"measurement": "t1/2 in human plasma", "setting": "[4]", "value": 4, "unit": "days"}, {"measurement": "t1/2 in pH 7.0 phosphate buffer", "value": 1, "unit": "week"}]}
